{
  "source": "patent US7157256B2",
  "about": "“Method for producing para-hydroxystyrene and other multifunctional aromatic compounds using two-phase extractive fermentation” (E. I. du Pont de Nemours and Company, priority 2003, dated 2007)",
  "key": {"E. coli TY1 (DGL430)": {"tested_on": "E. coli TY1 (DGL430)", "assay": "Effect of pHCA and pHS on growth and fermentation of E. coli, shake flasks", "assay_type": "cell-based", "settings": "E. coli TY1 shake flask", "experimental": "This study was done using E. coli TY1 (DGL430), a tyrosine overproducing strain obtained from OmniGene Bioproducts, Inc. (Cambridge, Mass.). This strain also produces phenylalanine. The seed culture of this strain was propagated in a medium consisting of MgSO4.7H2O (0.5 g/L), (NH4)2SO4 (4 g/L), MOPS (20.9 g/L) and 10 mL of phosphate solution. The pH of the seed medium was adjusted to pH 6.8 and then the medium was steam-sterilized. The phosphate solution contained KH2PO4 (57.3 g/L) and K2HPO4 (110.2 g/L) and was adjusted to pH 6.8. The following solutions were then aseptically added to the seed medium to give the final concentration given in parentheses: thiamine (1 mg/L), glucose (1 g/L), lactose (15 g/L), 5 mL of a trace element solution, and tetracycline (5 mg/L). The trace element solution contained citric acid (10 g/L), CaCl2.2H2O (1.5 g/L), FeSO4.7H2O (5 g/L), ZnSO4.7H2O (0.39 g/L) and CuSO4.5H2O (0.38 g/L). The seed medium was inoculated from a frozen pre-seed culture and was grown in 250 mL baffled flasks in an Innova 4000 incubator shaker (New Brunswick Scientific Co., Edison, N.J.), incubated at 35° C. and 300 rpm for 12–16 h. One milliliter of this seed culture was used to inoculate each of the test cultures.\nThe test medium was 50 mL of an aqueous solution containing: (NH4)2SO4 (4 g), 1 mL of phosphate solution, MgSO4.7H2O (0.5 g), and MOPS (20.9 g), with the pH adjusted to 7.0. After sterilization of this medium, thiamine (1 mg/L), 5 mL of trace element solution, glucose (2 g/L), lactose (15 g/L), IPTG (0.5 mM), and tetracycline (10 mg/L) were aseptically added to give the final concentration given in parentheses. The 250 mL baffled flasks containing 50 mL of the test medium were inoculated with the seed culture and were incubated at 35° C. and 300 rpm for 42 h in the incubator shaker. Samples of the culture were taken at various times and the optical density at 550 nm (OD550) was measured spectrophotometrically. The pH of these samples was also measured. After completion of the fermentation, the tyrosine and phenylalanine concentrations in the culture were measured using HPLC, as described supra.\nThis experiment was repeated using pHS in place of pHCA."}, "[1]": {"assay": "Partition of pHS between 2-undecanone and aqueous medium, 10 L fermentor", "assay_type": "physicochemical", "settings": "2-undecanone/aqueous", "experimental": "The pre-seed culture was E. coli strain WWQ51.1, as described in Example 3, frozen in glycerol. This culture was used to inoculate 500 mL of the seed medium consisting of KH2PO4 (0.15 g/L), Na2HPO4 (0.35 g/L), (NH4)2SO4 (3 g/L), MgSO4.7H2O (0.3 g/L), yeast extract (0.5 g/L), and MOPS (15.7 g/L). The medium was adjusted to pH 6.8 and steam sterilized. Then, glucose (10 g/L), kanamycin (50 mg/L) and ampicillin (100 mg/L) were aseptically added to give the final concentration given in parentheses. The seed culture was inoculated and grown in a 2 L flask incubated at 35° C. and 300 rpm for 12 h in an incubator shaker.\nThe fermentor medium consisted of: 6.2 L of H2O, 1.4 g KH2PO4, 3.5 g MgSO4.7H2O, 7 g (NH4)2SO4, 7 mL of Mazu DF204 Defoamer, obtained from BASF Corp. (Mt. Olive, N.J.), 7 mg thiamine, and 3 L of 2-undecanone, obtained from Bedoukian Research, Inc. (Danbury, Conn.). After sterilization of the medium, 250 g of a 50% w/v glucose solution and 140 mL of the trace element solution (as described in Example 1), were aseptically added. The pH of the medium was adjusted to 6.5. The final total volume of the fermentation medium was 10 L.\nThe seed culture was used to inoculate the fermentor medium in a 14 L Braun Fermentor, Biostat C. B. (Braun Biotech International, Melesungen, Germany). The fermentation conditions were as follows: temperature: 35° C., stir rate: 400–600 rpm, airflow: 2–16 SLPM, DO2: 25%, and pressure: 1 bar. Glucose was fed into the fermentor starting at a rate of 0.28 g/min. This rate was reduced when the glucose concentration rose above 2 g/L. IPTG (8 mL of a 0.5 M solution) was added when the glucose concentration fell below 4 g/L.\nSamples of the aqueous and organic phases were collected at various times. The glucose, pHCA, CA, phenylalanine, tyrosine, and pHS concentrations, and the OD550 in the aqueous phase were determined, as described supra. The pHS concentration in the organic phase was measured using HPLC, as described supra."}, "[2]": {"tested_on": "P. putida strain S12 (ATCC No. 700801)", "assay": "Effect of pHS on the growth of Pseudomonas putida", "assay_type": "cell-based", "settings": "for Growth Rate, %: percentage of growth without pHS", "experimental": "This study was done using P. putida strain S12 (ATCC No. 700801), obtained from the American Type Culture Collection. This P. putida strain was grown at 30° C. in 20 mL of LB medium containing 0.25% glucose and 10 mM MgSO4 in a 125 mL baffled flask until stationary phase was achieved. Aliquots from this stationary phase culture were plated on LB agar plates containing 0.25% glucose, 10 mM MgSO4, and 1 g/L pHS, and incubated at 30° C. for several days. Colonies from these plates were streaked on identical plates and grown as described above. An individual colony from these plates was used to inoculate 20 mL of liquid LB medium containing 0.5% glucose, 10 mM MgSO4 and 1 g/L pHS. This culture was grown in a 125 mL baffled flask at 30° C. and 200 rpm in an incubator shaker until stationary phase was achieved. These stationary phase cells (0.5 mL) were added to 20 mL of a test medium consisting of LB medium, 0.5% glucose, 10 mM MgSO4 and either 0, 1.0, or 1.25 g/L pHS. These cultures were grown in 125 mL baffled flasks at 30° C. and 200 rpm in an incubator shaker. Cell growth in these cultures was monitored by taking aliquots, diluting them with an equal volume of 1,2-propanediol, and measuring the OD at 600 nm. These OD measurements were used to calculate the doubling time and growth rate as a percentage of growth observed in the test medium without pHS."}},
  "data": [
    {"smiles": "C=Cc1ccc(O)cc1", "note": "[pHS, para-hydroxystyrene]", "values": [
      {"measurement": "concentration at which complete inhibition of growth / no growth was observed", "setting": "E. coli TY1 (DGL430)", "result": 0.4, "unit": "g/L"},
      {"measurement": "concentration that inhibited cell growth", "setting": "E. coli TY1 (DGL430)", "result": 0.2, "unit": "g/L"},
      {"measurement": "Partition coeff.", "setting": "[1]; 13.5 h", "result": 19},
      {"measurement": "Partition coeff.", "setting": "[1]; 15.9 h", "result": 14},
      {"measurement": "Partition coeff.", "setting": "[1]; 18.3 h", "result": 19},
      {"measurement": "Partition coeff.", "setting": "[1]; 20.2 h", "result": 27},
      {"measurement": "Partition coeff.", "setting": "[1]; 23.3 h", "result": 33},
      {"measurement": "Partition coeff.", "setting": "[1]; 25.5 h", "result": 45},
      {"measurement": "Partition coeff.", "setting": "[1]; 27.3 h", "result": 40},
      {"measurement": "Partition coeff.", "setting": "[1]; 33.6 h", "result": 19},
      {"measurement": "Partition coeff.", "setting": "[1]; 36.8 h", "result": 19},
      {"measurement": "Partition coeff.", "setting": "[1]; 39.3 h", "result": 21},
      {"measurement": "Partition coeff.", "setting": "[1]; 57.1 h", "result": 17},
      {"measurement": "Partition coeff.", "setting": "[1]; 59.4 h", "result": 22},
      {"measurement": "Partition coeff.", "setting": "[1]; 63.8 h", "result": 27},
      {"measurement": "Doubling Time", "setting": "[2]; pHS 1.0 g/L, pHS-adapted cells, LB medium, 30° C.", "result": 118, "unit": "min"},
      {"measurement": "Growth Rate, %", "setting": "[2]; pHS 1.0 g/L", "result": 85, "unit": "%"},
      {"measurement": "Doubling Time", "setting": "[2]; pHS 1.25 g/L", "result": 111, "unit": "min"},
      {"measurement": "Growth Rate, %", "setting": "[2]; pHS 1.25 g/L", "result": 90, "unit": "%"}
    ]}
  ]
}
